Reference: PubChem BioAssay (NCI)
“And” between values parts separate entries of the source, which are not always exact repeats. Identical values can stand only once.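 Growth conditions: 96-well plates. Treatment: test compound, 48 hours, 5 concentrations. Analysis: linear interpolation between bracketing concentrations; unreached endpoints set to highest concentration. GI50: concentration for 50% inhibition of growth. TGI: total growth inhibition.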

How the values were obtained:
Test in all cases: NCI-60 cell line screen, 48 h
UACC-257 melanoma = tested on: UACC-257 melanoma
HT29 colon = tested on: HT29 colon
HCC-2998 colon = tested on: HCC-2998 colon
U251 CNS = tested on: U251 CNS
OVCAR-3 ovarian = tested on: OVCAR-3 ovarian
SN12C renal = tested on: SN12C renal
MDA-MB-231 breast = tested on: MDA-MB-231 breast
SK-MEL-28 melanoma = tested on: SK-MEL-28 melanoma
OVCAR-4 ovarian = tested on: OVCAR-4 ovarian
CCRF-CEM leukemia = tested on: CCRF-CEM leukemia

Q: Which results are given for `OC1CCC(Oc2cccc3cnc(Nc4ccc5nc[nH]c5c4)nc23)CC1` (centres undefined)?
A: GI50 (UACC-257 melanoma): 1.2 µM; TGI (UACC-257 melanoma): 8.92 µM; GI50 (HT29 colon): 0.437 µM; TGI (HT29 colon): 9.15 µM; GI50 (HCC-2998 colon): 0.708 µM; TGI (HCC-2998 colon): 9.09 µM; GI50 (U251 CNS): 0.428 µM; TGI (U251 CNS): 15.7 µM; GI50 (OVCAR-3 ovarian): 0.423 µM; TGI (OVCAR-3 ovarian): 19.4 µM; GI50 (SN12C renal): 0.392 µM; TGI (SN12C renal): 72.7 µM; GI50 (MDA-MB-231 breast): 0.389 µM; TGI (MDA-MB-231 breast): 19.8 µM; GI50 (SK-MEL-28 melanoma): 0.791 µM; TGI (SK-MEL-28 melanoma): 6.83 µM; GI50 (OVCAR-4 ovarian): 1.06 µM; TGI (OVCAR-4 ovarian): 16 µM; GI50 (CCRF-CEM leukemia): 0.282 µM; TGI (CCRF-CEM leukemia): 17.3 µM

Q: Which TGI (UACC-257 melanoma) does the source give for `CC[C@@]1(OC(=O)CCC(=O)O)C(=O)OCc2c1cc1n(c2=O)Cc2cc3ccccc3nc2-1` here?
A: 2.09 µM

Q: And the TGI (HT29 colon)?
A: > 33.6 µM

Q: And the TGI (HCC-2998 colon)?
A: 4.29 µM

Q: And the TGI (U251 CNS)?
A: 2.18 µM

Q: And the TGI (OVCAR-3 ovarian)?
A: 3.88 µM

Q: What about the TGI (SN12C renal) of the same compound?
A: 4.22 µM

Q: What about the TGI (MDA-MB-231 breast) of the same compound?
A: > 27.6 µM

Q: And the TGI (SK-MEL-28 melanoma)?
A: > 46.1 µM

Q: What about the TGI (OVCAR-4 ovarian) of the same compound?
A: 13.3 µM

Q: And the TGI (CCRF-CEM leukemia)?
A: 0.127 µM

Q: With `O=C1OCC2=Nc3cccc4cccc(c34)N12` as the compound, how does the TGI (UACC-257 melanoma) read?
A: > 100 µM

Q: And the TGI (HT29 colon)?
A: > 100 µM

Q: And the TGI (HCC-2998 colon)?
A: > 100 µM

Q: What about the TGI (U251 CNS) of the same compound?
A: > 100 µM

Q: What about the TGI (OVCAR-3 ovarian) of the same compound?
A: > 100 µM

Q: And the TGI (SN12C renal)?
A: > 100 µM

Q: And the TGI (MDA-MB-231 breast)?
A: > 100 µM

Q: What about the TGI (SK-MEL-28 melanoma) of the same compound?
A: > 100 µM

Q: What about the TGI (OVCAR-4 ovarian) of the same compound?
A: > 100 µM

Q: What about the TGI (CCRF-CEM leukemia) of the same compound?
A: > 100 µM

Q: How did the GI50 (UACC-257 melanoma) turn out when `Cc1ccc2c(c1)sc(-c1ccc(N(C)C)cc1)[n+]2C` was run?
A: 0.657 µM

Q: What about the TGI (UACC-257 melanoma) of the same compound?
A: 19.9 µM

Q: What about the GI50 (HT29 colon) of the same compound?
A: 0.854 µM

Q: What about the TGI (HT29 colon) of the same compound?
A: > 37.9 µM

Q: And the GI50 (HCC-2998 colon)?
A: 1.51 µM

Q: And the TGI (HCC-2998 colon)?
A: 19 µM

Q: And the GI50 (U251 CNS)?
A: 0.467 µM

Q: What about the TGI (U251 CNS) of the same compound?
A: > 76 µM

Q: What about the GI50 (OVCAR-3 ovarian) of the same compound?
A: 0.685 µM

Q: What about the TGI (OVCAR-3 ovarian) of the same compound?
A: 15 µM

Q: And the GI50 (SN12C renal)?
A: 2.71 µM

Q: What about the TGI (SN12C renal) of the same compound?
A: 42.8 µM

Q: What about the GI50 (MDA-MB-231 breast) of the same compound?
A: 2.75 µM

Q: And the TGI (MDA-MB-231 breast)?
A: 21.1 µM

Q: And the GI50 (SK-MEL-28 melanoma)?
A: 3.3 µM

Q: What about the TGI (SK-MEL-28 melanoma) of the same compound?
A: 20.9 µM

Q: And the GI50 (OVCAR-4 ovarian)?
A: 1.58 µM

Q: And the TGI (OVCAR-4 ovarian)?
A: > 100 µM

Q: What about the GI50 (CCRF-CEM leukemia) of the same compound?
A: 1.98 µM

Q: What about the TGI (CCRF-CEM leukemia) of the same compound?
A: > 62.5 µM

Q: How did the TGI (UACC-257 melanoma) turn out when `COC1C(=O)CCC2(CO2)C1(O)C1(C)OC1CCC(C)C` (centres undefined) was run?
A: > 100 µM

Q: What about the TGI (HT29 colon) of the same compound?
A: > 100 µM

Q: What about the TGI (HCC-2998 colon) of the same compound?
A: > 100 µM

Q: And the TGI (U251 CNS)?
A: > 100 µM

Q: What about the TGI (OVCAR-3 ovarian) of the same compound?
A: > 100 µM

Q: And the TGI (SN12C renal)?
A: > 100 µM

Q: And the TGI (MDA-MB-231 breast)?
A: > 100 µM

Q: What about the TGI (SK-MEL-28 melanoma) of the same compound?
A: > 100 µM

Q: And the TGI (OVCAR-4 ovarian)?
A: > 100 µM

Q: And the TGI (CCRF-CEM leukemia)?
A: > 100 µM

Q: What does the source list for `Nc1ccc2c(c1)[O][Sn]([c]1ccccc1)([c]1ccccc1)[O]C2=O`?
A: GI50 (UACC-257 melanoma): 8.14 µM; TGI (UACC-257 melanoma): 20 µM; GI50 (HT29 colon): 12.1 µM; TGI (HT29 colon): 26.5 µM; GI50 (HCC-2998 colon): 17.8 µM; TGI (HCC-2998 colon): 33.2 µM; GI50 (U251 CNS): 8.6 µM; TGI (U251 CNS): 16.3 µM; GI50 (OVCAR-3 ovarian): 6.79 µM; TGI (OVCAR-3 ovarian): 15.9 µM; GI50 (SN12C renal): 7.24 µM; TGI (SN12C renal): 20.4 µM; GI50 (MDA-MB-231 breast): 5.11 µM; TGI (MDA-MB-231 breast): 11.6 µM; GI50 (SK-MEL-28 melanoma): 5.02 µM; TGI (SK-MEL-28 melanoma): 12.4 µM; GI50 (OVCAR-4 ovarian): 12.9 µM; TGI (OVCAR-4 ovarian): 28.4 µM; GI50 (CCRF-CEM leukemia): 1.92 µM; TGI (CCRF-CEM leukemia): 7.76 µM

Q: With `COc1ccc(N=Cc2ccc(N(CCC#N)CCC#N)cc2)cc1` as the compound, how does the TGI (UACC-257 melanoma) read?
A: > 100 µM

Q: And the TGI (HT29 colon)?
A: > 100 µM

Q: What about the TGI (HCC-2998 colon) of the same compound?
A: > 88.1 µM

Q: And the TGI (U251 CNS)?
A: > 100 µM

Q: What about the TGI (OVCAR-3 ovarian) of the same compound?
A: > 100 µM

Q: What about the TGI (SN12C renal) of the same compound?
A: > 100 µM

Q: And the TGI (MDA-MB-231 breast)?
A: > 100 µM

Q: And the TGI (SK-MEL-28 melanoma)?
A: > 100 µM

Q: What about the TGI (OVCAR-4 ovarian) of the same compound?
A: > 100 µM

Q: And the TGI (CCRF-CEM leukemia)?
A: > 100 µM

Q: What does the source list for `O=C1/C(=C\c2cccs2)Oc2ccccc21`?
A: TGI (UACC-257 melanoma): > 100 µM; TGI (HT29 colon): > 100 µM; TGI (HCC-2998 colon): > 100 µM; TGI (U251 CNS): > 100 µM; TGI (OVCAR-3 ovarian): > 100 µM; TGI (SN12C renal): > 100 µM; TGI (MDA-MB-231 breast): > 100 µM; TGI (SK-MEL-28 melanoma): > 100 µM; TGI (OVCAR-4 ovarian): > 100 µM; TGI (CCRF-CEM leukemia): > 100 µM

Q: Which results are given for `Cn1cnc([N+](=O)[O-])c1Sc1ncnc2nc[nH]c12`?
A: GI50 (UACC-257 melanoma): 7.86 µM and 8.71 µM; TGI (UACC-257 melanoma): > 100 µM; GI50 (HT29 colon): 7.17 µM and 22.6 µM; TGI (HT29 colon): > 100 µM; GI50 (HCC-2998 colon): 5.64 µM; TGI (HCC-2998 colon): > 100 µM; GI50 (U251 CNS): 13.9 µM and 27.7 µM; TGI (U251 CNS): > 100 µM; GI50 (OVCAR-3 ovarian): 2.92 µM and 3.23 µM; TGI (OVCAR-3 ovarian): 75.9 µM and > 80.2 µM; GI50 (SN12C renal): 20.5 µM and 36.4 µM; TGI (SN12C renal): > 100 µM; GI50 (MDA-MB-231 breast): 8.83 µM and 11.7 µM; TGI (MDA-MB-231 breast): > 100 µM; GI50 (SK-MEL-28 melanoma): 37.8 µM and 40.2 µM; TGI (SK-MEL-28 melanoma): > 100 µM; GI50 (OVCAR-4 ovarian): 3.38 µM and 10.2 µM; TGI (OVCAR-4 ovarian): > 100 µM; GI50 (CCRF-CEM leukemia): 3.64 µM and 5.1 µM; TGI (CCRF-CEM leukemia): > 100 µM

Q: Which TGI (UACC-257 melanoma) does the source give for `CC(O)C(NC(=O)C(CS)NC(=O)C(CO)NC(=O)C(CCCCN)NC(=O)C(Cc1c[nH]c2ccccc12)NC(=O)C(Cc1ccc(O)cc1)NC(=O)C(CS)NC(=O)C(N)Cc1ccccc1)C(N)=O` (centres undefined) here?
A: > 25 µM and 65.9 µM

Q: And the TGI (HT29 colon)?
A: > 25 µM and 61.4 µM

Q: And the TGI (HCC-2998 colon)?
A: > 25 µM and 57.7 µM

Q: What about the TGI (U251 CNS) of the same compound?
A: > 25 µM and 63.1 µM

Q: And the GI50 (OVCAR-3 ovarian)?
A: 21.3 µM

Q: What about the TGI (OVCAR-3 ovarian) of the same compound?
A: > 25 µM and 50 µM

Q: What about the GI50 (SN12C renal) of the same compound?
A: 28.6 µM

Q: What about the TGI (SN12C renal) of the same compound?
A: > 25 µM and 84.2 µM

Q: And the TGI (MDA-MB-231 breast)?
A: > 25 µM

Q: What about the TGI (SK-MEL-28 melanoma) of the same compound?
A: 76.9 µM

Q: What about the GI50 (OVCAR-4 ovarian) of the same compound?
A: 26.6 µM

Q: And the TGI (OVCAR-4 ovarian)?
A: > 25 µM and 94.8 µM

Q: What about the GI50 (CCRF-CEM leukemia) of the same compound?
A: 19.7 µM

Q: What about the TGI (CCRF-CEM leukemia) of the same compound?
A: > 25 µM and 43.3 µM
